Laboratory results: patent US20070128217A1 (priority 2003, published 2007)

Columns and labels:
[1] = system: control sera (pooled serum of ten healthy LUMC hospital workers; commercial negative donor pooled serum from the Dutch bloodbank); format: binding, human; design: Binding of Control serum LUMC to linear peptides / Binding of Control serum Blood-bank to linear peptides / Binding of Control serum LUMC to looped peptides / Binding of Control Serum Blood-Bank to Looped peptides / Binding of Control serum LUMC to linear peptides of the protein M of SARS-CoV Urbani / Binding of Control serum Blood-bank to linear peptides of the protein M of SARS-CoV Urbani / Binding of Control serum LUMC to looped peptides of the protein M of SARS-CoV Urbani / Binding of Control Serum Blood-Bank to Looped peptides of the protein M of SARS-CoV Urbani: unit not given here
[2] = system: antibodies in sera from SARS patients (sera 1a, 1b, 2, 6, 37, 62, London, SARS-yellow, SARS-green); format: binding, human; design: Binding of serum 6 to linear peptides of protein X1 of SARS-CoV Urbani / Binding of serum 37 to linear peptides of protein X1 of SARS-CoV Urbani / Binding of serum 6 to looped/cyclic peptide (PEPSCAN-ELISA) / Binding of serum 37 to looped/cyclic peptide (PEPSCAN-ELISA) / Binding of serum 37 to looped/cyclic peptides of protein X1 of SARS-CoV Urbani / Binding of serum 6 to linear peptides of protein X2 / Binding of serum 37 to linear peptides of protein X2 / Binding of serum 37 to looped/cyclic peptides of protein X2 of SARS-CoV Urbani / Binding of serum 6 to linear peptides of protein M of SARS-CoV Urbani / Binding of serum 37 to linear peptides of protein M of SARS-CoV Urbani / Binding of serum 6 to looped/cyclic peptides of protein M of SARS-CoV Urbani / Binding of serum 37 to looped/cyclic peptides of protein M of SARS-CoV Urbani / Binding of serum 6 to linear peptides of protein X3 of SARS-CoV Urbani / Binding of serum 37 to linear peptides of protein X3 of SARS-CoV Urbani / Binding of serum 37 to looped/cyclic peptides of protein X3 of SARS-CoV Urbani / Binding of serum 6 to linear peptides of protein X4 of SARS-CoV Urbani / Binding of serum 37 to linear peptides of protein X4 of SARS-CoV Urbani / Binding of serum 37 to looped/cyclic peptides of protein X4 of SARS-CoV Urbani / Binding of serum 6 to linear peptides of protein X5 of SARS-CoV Urbani / Binding of serum 37 to linear peptides of protein X5 of SARS-CoV Urbani / Binding of serum 37 to looped/cyclic peptides of protein X5 of SARS-CoV Urbani / Binding of serum 6 to linear peptides of protein N of SARS-CoV Urbani / Binding of serum 37 to linear peptides of protein N of SARS-CoV Urbani / Binding of serum 6 to linear peptide (PEPSCAN-ELISA) / Binding of serum 1a to looped/cyclic peptides of protein N of SARS-CoV Urbani / Binding of serum 1b to looped/cyclic peptides of protein N of SARS-CoV Urbani / Binding of serum 2 to looped/cyclic peptides of protein N of SARS-CoV Urbani / Binding of serum 6 to looped/cyclic peptides of protein N of SARS-CoV Urbani / Binding of serum 37 to looped/cyclic peptides of protein N of SARS-CoV Urbani / Binding of serum 62 to looped/cyclic peptides of protein N of SARS-CoV Urbani / Binding of serum London to looped/cyclic peptides of protein N of SARS-CoV Urbani / Binding of serum SARS-green to looped/cyclic peptides of protein N of SARS-CoV Urbani: unit not given here

For MVQTGTPNVTINCQD, the “Binding of Control Serum Blood-Bank to Looped peptides” value [1] was 0.3, the “Binding of Control serum Blood-bank to linear peptides” value [1] was 0.8 and the “Binding of Control serum LUMC to linear peptides” value [1] was 0.6. The “Binding of Control serum LUMC to looped peptides” value [1] was 0.3.

With RCWLGWKCKSKNPLL the “Binding of Control Serum Blood-Bank to Looped peptides” value [1] was 0.7, the “Binding of Control serum Blood-bank to linear peptides” value [1] was 1.2 and the “Binding of Control serum LUMC to linear peptides” value [1] was 1.0. For the same sequence, the “Binding of Control serum LUMC to looped peptides” value [1] was 0.7.

With SLTSLLKTHRMCKYT the “Binding of serum 1a to linear peptides of protein X2” value [2] was 0.8, the “Binding of serum 1a to looped/cyclic peptides of protein X2 of SARS-CoV Urbani” value [2] was 0.3 and the “Binding of serum 1b to linear peptides of protein X2” value [2] was 0.4. The “Binding of serum 1b to looped/cyclic peptides of protein X2 of SARS-CoV Urbani” value [2] was 0.3, the “Binding of serum 2 to linear peptides of protein X2” value [2] was 0.4 and the “Binding of serum 2 to looped/cyclic peptides of protein X2 of SARS-CoV Urbani” value [2] was 0.1. For the same sequence, the “Binding of serum 6 to linear peptides of protein X2” value [2] was 0.4, the “Binding of serum 6 to looped/cyclic peptides of protein X2 of SARS-CoV Urbani” value [2] was 0.2 and the “Binding of serum 37 to linear peptides of protein X2” value [2] was 0.3. For the same sequence, the “Binding of serum 37 to looped/cyclic peptides of protein X2 of SARS-CoV Urbani” value [2] was 0.2, the “Binding of serum 62 to linear peptides of protein X2” value [2] was 0.7 and the “Binding of serum 62 to looped/cyclic peptides of protein X2 of SARS-CoV Urbani” value [2] was 0.4. The “Binding of serum London to linear peptides of protein X2” value [2] was 0.4, the “Binding of serum London to looped/cyclic peptides of protein X2 of SARS-CoV Urbani” value [2] was 0.2 and the “Binding of serum SARS-green to linear peptides of protein X2” value [2] was 0.5. For the same sequence, the “Binding of serum SARS-green to looped/cyclic peptides of protein X2 of SARS-CoV Urbani” value [2] was 0.2, the “Binding of serum SARS-yellow to linear peptides of protein X2” value [2] was 0.3 and the “Binding of serum SARS-yellow to looped/cyclic peptides of protein X2 of SARS-CoV Urbani” value [2] was 0.3.

With TGTLIVNSVLLPLAF the “Binding of serum 1a to linear peptides of protein E of SARS-CoV Urbani” value [2] was 0.7, the “Binding of serum 1b to linear peptides of protein E of SARS-CoV Urbani” value [2] was 0.5 and the “Binding of serum 2 to linear peptides of protein E of SARS-CoV Urbani” value [2] was 0.3. For the same sequence, the “Binding of serum 6 to linear peptides of protein E of SARS-CoV Urbani” value [2] was 0.6, the “Binding of serum 37 to linear peptides of protein E of SARS-CoV Urbani” value [2] was 0.7 and the “Binding of serum 62 to linear peptides of protein E of SARS-CoV Urbani” value [2] was 0.6. For the same sequence, the “Binding of serum London to linear peptides of protein E of SARS-CoV Urbani” value [2] was 0.4, the “Binding of serum SARS-green to linear peptides of protein E of SARS-CoV Urbani” value [2] was 0.4 and the “Binding of serum SARS-yellow to linear peptides of protein E of SARS-CoV Urbani” value [2] was 0.2.

For TTVYHTTVSQIQLSL, the “Binding of Control Serum Blood-Bank to Looped peptides” value [1] was 0.6, the “Binding of Control serum Blood-bank to linear peptides” value [1] was 0.6 and the “Binding of Control serum LUMC to linear peptides” value [1] was 0.7. The “Binding of Control serum LUMC to looped peptides” value [1] was 0.5.

In the case of VQQELYSPLFLIVAA, the “Binding of serum 1a to linear peptides of protein X4 of SARS-CoV Urbani” value [2] is reported as 0.7, the “Binding of serum 1a to looped/cyclic peptides of protein X4 of SARS-CoV Urbani” value [2] is reported as 0.8 and the “Binding of serum 1b to linear peptides of protein X4 of SARS-CoV Urbani” value [2] is reported as 0.6. For the same sequence, the “Binding of serum 1b to looped/cyclic peptides of protein X4 of SARS-CoV Urbani” value [2] was 0.5, the “Binding of serum 2 to linear peptides of protein X4 of SARS-CoV Urbani” value [2] was 0.6 and the “Binding of serum 2 to looped/cyclic peptides of protein X4 of SARS-CoV Urbani” value [2] was 0.7. For the same sequence, the “Binding of serum 6 to linear peptides of protein X4 of SARS-CoV Urbani” value [2] was 0.9, the “Binding of serum 6 to looped/cyclic peptides of protein X4 of SARS-CoV Urbani” value [2] was 0.5 and the “Binding of serum 37 to linear peptides of protein X4 of SARS-CoV Urbani” value [2] was 0.7. The “Binding of serum 37 to looped/cyclic peptides of protein X4 of SARS-CoV Urbani” value [2] was 0.7, the “Binding of serum 62 to linear peptides of protein X4 of SARS-CoV Urbani” value [2] was 0.7 and the “Binding of serum 62 to looped/cyclic peptides of protein X4 of SARS-CoV Urbani” value [2] was 0.7. For the same sequence, the “Binding of serum London to linear peptides of protein X4 of SARS-CoV Urbani” value [2] was 0.9, the “Binding of serum London to looped/cyclic peptides of protein X4 of SARS-CoV Urbani” value [2] was 0.3 and the “Binding of serum SARS-green to linear peptides of protein X4 of SARS-CoV Urbani” value [2] was 0.6. For the same sequence, the “Binding of serum SARS-green to looped/cyclic peptides of protein X4 of SARS-CoV Urbani” value [2] was 0.4, the “Binding of serum SARS-yellow to linear peptides of protein X4 of SARS-CoV Urbani” value [2] was 0.5 and the “Binding of serum SARS-yellow to looped/cyclic peptides of protein X4 of SARS-CoV Urbani” value [2] was 0.8. For the same sequence, the “Recognition of the peptide by sera of SARS-CoV infected individuals, and form (linear, looped/cyclic) in which it is recognized” value [2] was “recognized in looped/cyclic form”, the “Binding of Control Serum Blood-Bank to Looped peptides” value [1] was 0.7 and the “Binding of Control serum Blood-bank to linear peptides” value [1] was 0.6. The “Binding of Control serum LUMC to linear peptides” value [1] was 0.5 and the “Binding of Control serum LUMC to looped peptides” value [1] was 0.6.
